Like-named read-outs stand apart in the source and are kept apart here.
Tests used:
Assay type in all cases: cell-based, Escherichia coli
EKO-35-Pore = assay: MIC susceptibility profiling, porinated strain; settings: for Fold changes of MICs: EKO-35-Pore compared to EKO-35-Pore (reference); for MIC: Escherichia coli, technical duplicate
Method in brief: (§1)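 Strains carry the fhuA ΔC/Δ4L pore integrated between glmS and pstS under a constitutive promoter, with pore activity checked by vancomycin susceptibility. Overnight LB cultures were adjusted in PBS pH 7.4 to OD600 ~1.0 and diluted 1/2000 into MHB II. 2-fold compound titrations were read by OD600 after 18 h at 37 °C.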

ΔtolC-Pore = assay: microbe, parasite or virus in culture; settings: for MIC: Escherichia coli, 18 h, read-out: Minimum inhibitory concentration, ΔtolC-Pore; for Minimum inhibitory concentration (MIC), Pore ΔtolC: Table 10, with pore, technical duplicate
Method in brief: as §1

wild-type (WT) K-12-Pore = assay: microbe, parasite or virus in culture; settings: Escherichia coli, technical duplicate
Method in brief: as §1

[1] = system: wild-type E. coli K-12 str. BW25113; assay: microbe, parasite or virus in culture; settings: Escherichia coli, BW25113, technical duplicate
Method in brief: (§2)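 Strains are grown overnight in LB at 37 °C, adjusted to OD600 ~1.0 in PBS (pH 7.4) and diluted 1/2000 into MHB II. They are incubated with twofold compound dilutions for 18 h at 37 °C. MIC comes from background-subtracted OD600.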

E. coli ΔtolC = assay: microbe, parasite or virus in culture; settings: for MIC: Escherichia coli, 18 h, read-out: Minimum Inhibitory Concentration, ΔtolC; for Minimum inhibitory concentration (MIC), ΔtolC: Table 10, without pore, technical duplicate
Method in brief: as §2

E. coli EKO-35 = assay: microbe, parasite or virus in culture; settings: for Fold change of MICs: EKO-35 compared to EKO-35 (reference); for MIC: Escherichia coli, EKO35, technical duplicate
Method in brief: as §2

EKO-35 araC::macAB = assay: MIC susceptibility profiling, efflux platform; settings: for Fold change of MICs: EKO-35 araC::macAB compared to EKO-35
Method in brief: as §2

EKO-35 araC::emrAB = assay: MIC susceptibility profiling, efflux platform; settings: for Fold change of MICs: EKO-35 araC::emrAB compared to EKO-35
Method in brief: as §2

EKO-35 araC::acrEF = assay: MIC susceptibility profiling, efflux platform; settings: for MIC: Escherichia coli, Table 13A, non-porinated, technical duplicate, read-out: Minimum Inhibitory Concentration, EKO-35 araC::acrEF
Method in brief: as §2

EKO-35 araC::macAB Pore = assay: MIC susceptibility profiling, porinated efflux platform; settings: for Fold changes of MICs: EKO-35 araC::macAB Pore compared to EKO-35-Pore; for MIC: Escherichia coli, EKO-35 araC::macAB Pore, technical duplicate, read-out: Minimum inhibitory concentration
Method in brief: as §1

EKO-35 araC::mdtEF Pore = assay: as above; settings: for Fold changes of MICs: EKO-35 araC::mdtEF Pore compared to EKO-35-Pore; for MIC: Escherichia coli, Table 14A, porinated, technical duplicate, read-out: Minimum inhibitory concentration, EKO-35 araC::mdtEF Pore
Method in brief: as §1

EKO-35 araC::acrD Pore = assay: as above; settings: for Fold changes of MICs: EKO-35 araC::acrD Pore compared to EKO-35-Pore; for MIC: Escherichia coli, Table 14A, porinated, technical duplicate, read-out: Minimum inhibitory concentration, EKO-35 araC::acrD Pore
Method in brief: as §1

EKO-35 araC::mexCD Pore = assay: as above; settings: for Fold changes of MICs: EKO-35 araC::mexCD Pore compared to EKO-35-Pore; for MIC: Escherichia coli, EKO-35 araC::mexCD Pore, technical duplicate, read-out: Minimum inhibitory concentration
Method in brief: as §1

EKO-35 araC::acrEF Pore = assay: as above; settings: for Fold changes of MICs: EKO-35 araC::acrEF Pore compared to EKO-35-Pore; for MIC: Escherichia coli, Table 14A, porinated, technical duplicate, read-out: Minimum inhibitory concentration, EKO-35 araC::acrEF Pore
Method in brief: as §1

EKO-35 araC::acrB Pore = assay: as above; settings: for Fold changes of MICs: EKO-35 araC::acr-B Pore compared to EKO-35-Pore; for MIC: Escherichia coli, Table 14A, porinated, technical duplicate, read-out: Minimum inhibitory concentration, EKO-35 araC::acrB Pore
Method in brief: as §1

EKO-35 araC::emrAB Pore = assay: as above; settings: for Fold changes of MICs: EKO-35 araC::emrAB Pore compared to EKO-35-Pore; for MIC: Escherichia coli, EKO-35 araC::emrAB Pore, technical duplicate, read-out: Minimum inhibitory concentration
Method in brief: as §1

[2] = system: EKO-35 araC::acrBD408A Pore; assay: as above; settings: for Fold changes of MICs: EKO-35 araC::acrBD408A Pore compared to EKO-35-Pore; for MIC: Escherichia coli, EKO-35 araC::acrBD408A Pore, technical duplicate, read-out: Minimum inhibitory concentration
Method in brief: as §1

EKO-35 araC::mdtBC Pore = assay: as above; settings: for Fold changes of MICs: EKO-35 araC::mdtBC Pore compared to EKO-35-Pore; for MIC: Escherichia coli, EKO-35 araC::mdtBC Pore, technical duplicate, read-out: Minimum inhibitory concentration
Method in brief: as §1

EKO-35 araC::emrKY Pore = assay: as above; settings: for Fold changes of MICs: EKO-35 araC::emrKY Pore compared to EKO-35-Pore; for MIC: Escherichia coli, EKO-35 araC::emrKY Pore, technical duplicate, read-out: Minimum inhibitory concentration
Method in brief: as §1

[3] = Table 10, with pore, read-out: Minimum inhibitory concentration (MIC), Pore EKO-35
[4] = Table 14A, porinated, read-out: Minimum inhibitory concentration, EKO-35-Pore
[5] = Table 10, with pore, read-out: Minimum inhibitory concentration (MIC), Pore K-12
[6] = Table 14A, porinated, read-out: Minimum inhibitory concentration, K-12 (WT)-Pore
[7] = Table 10, without pore, read-out: Minimum inhibitory concentration (MIC), K-12
[8] = Table 13A, non-porinated, read-out: Minimum Inhibitory Concentration, K-12
[9] = Table 10, without pore, read-out: Minimum inhibitory concentration (MIC), EKO-35
[10] = Table 13A, non-porinated, read-out: Minimum Inhibitory Concentration, EKO-35

| SMILES | Fold changes of MICs (EKO-35-Pore) [fold] | MIC (EKO-35-Pore; [3]) [µg/mL] | MIC (EKO-35-Pore; [4]) [µg/mL] | MIC (ΔtolC-Pore) [µg/mL] | Minimum inhibitory concentration (MIC), Pore ΔtolC (ΔtolC-Pore) [µg/mL] | MIC (wild-type (WT) K-12-Pore; [5]) [µg/mL] | MIC (wild-type (WT) K-12-Pore; [6]) [µg/mL] | MIC [1, 7] [µg/mL] | MIC [1, 8] [µg/mL] | MIC (E. coli ΔtolC) [µg/mL] | Minimum inhibitory concentration (MIC), ΔtolC (E. coli ΔtolC) [µg/mL] | Fold change of MICs (E. coli EKO-35) [fold] | MIC (E. coli EKO-35; [9]) [µg/mL] | MIC (E. coli EKO-35; [10]) [µg/mL] | Fold change of MICs (EKO-35 araC::macAB) [fold] | Fold change of MICs (EKO-35 araC::emrAB) [fold] | MIC (EKO-35 araC::acrEF) [µg/mL] | Fold changes of MICs (EKO-35 araC::macAB Pore) [fold] | MIC (EKO-35 araC::macAB Pore) [µg/mL] | Fold changes of MICs (EKO-35 araC::mdtEF Pore) [fold] | further results |
| --- | --- | --- | --- | --- | --- | --- | --- | --- | --- | --- | --- | --- | --- | --- | --- | --- | --- | --- | --- | --- | --- |
| CC[n+]1c(-c2ccccc2)c2cc(N)ccc2c2ccc(N)cc21 [ethidium bromide] | 1 | 0.098 | 0.098 | 3.12 | 3.125 | 100 | 100 | 100 | 100 | 3.12 | 3.125 | 1 | 0.195 | 0.195 | 1 | 1 | 3.12 | 1 | 0.098 | 8 | MIC (EKO-35 araC::macAB; Escherichia coli, Table 13B, non-porinated, technical duplicate, read-out: Minimum Inhibitory Concentration, EKO-35 araC::macAB): 0.195 µg/mL; MIC (EKO-35 araC::emrAB; Escherichia coli, Table 13B, non-porinated, technical duplicate, read-out: Minimum Inhibitory Concentration, EKO-35 araC::emrAB): 0.195 µg/mL; Fold change of MICs (EKO-35 araC::acrEF; EKO-35 araC::acrEF compared to EKO-35): 16 fold; MIC (EKO-35 araC::mdtEF Pore): 0.781 µg/mL; Fold changes of MICs (EKO-35 araC::acrD Pore): 2 fold; MIC (EKO-35 araC::acrD Pore): 0.195 µg/mL; Fold changes of MICs (EKO-35 araC::mexCD Pore): 8 fold; MIC (EKO-35 araC::mexCD Pore): 0.781 µg/mL; Fold changes of MICs (EKO-35 araC::acrEF Pore): 16 fold; MIC (EKO-35 araC::acrEF Pore): 1.56 µg/mL; Fold changes of MICs (EKO-35 araC::acrB Pore): 64 fold; MIC (EKO-35 araC::acrB Pore): 6.25 µg/mL; Fold changes of MICs (EKO-35 araC::emrAB Pore): 1 fold; MIC (EKO-35 araC::emrAB Pore): 0.098 µg/mL; Fold changes of MICs [2]: 1 fold; MIC [2]: 0.098 µg/mL; Fold changes of MICs (EKO-35 araC::mdtBC Pore): 1 fold; MIC (EKO-35 araC::mdtBC Pore): 0.098 µg/mL; Fold changes of MICs (EKO-35 araC::emrKY Pore): 1 fold; MIC (EKO-35 araC::emrKY Pore): 0.098 µg/mL |
| C[C@@H]1O[C@@H]1P(=O)(O)O [fosfomycin] | 1 | 0.781 | 0.781 | 3.12 | 3.125 | 3.12 | 3.12 | 6.25 | 6.25 | 6.25 | 6.25 | 1 | 3.12 | 3.12 | 1 | 1 | 1.56 | 1 | 0.781 | 1 | MIC (EKO-35 araC::mdtEF Pore): 0.781 µg/mL; Fold changes of MICs (EKO-35 araC::acrD Pore): 1 fold; MIC (EKO-35 araC::acrD Pore): 0.781 µg/mL; Fold changes of MICs (EKO-35 araC::mexCD Pore): 2 fold; MIC (EKO-35 araC::mexCD Pore): 1.56 µg/mL; Fold changes of MICs (EKO-35 araC::acrEF Pore): 2 fold; MIC (EKO-35 araC::acrEF Pore): 1.56 µg/mL; Fold changes of MICs (EKO-35 araC::acrB Pore): 1 fold; MIC (EKO-35 araC::acrB Pore): 0.781 µg/mL; Fold changes of MICs (EKO-35 araC::emrAB Pore): 2 fold; MIC (EKO-35 araC::emrAB Pore): 1.56 µg/mL; Fold changes of MICs [2]: 1 fold; MIC [2]: 0.781 µg/mL; Fold changes of MICs (EKO-35 araC::mdtBC Pore): 1 fold; MIC (EKO-35 araC::mdtBC Pore): 0.781 µg/mL; Fold changes of MICs (EKO-35 araC::emrKY Pore): 1 fold; MIC (EKO-35 araC::emrKY Pore): 0.781 µg/mL |
